This is an account of results in patent US10709791B2, “Stabilized polymeric carriers for therapeutic agent delivery” (University of Washington, priority 2014, dated 2020).

The conditions of data set [1]: human serum, 37° C., at 120 h.
Method: The drug release studies were conducted at 37° C. and free drug detection was quantified using an elution gradient profile at 277 nm. The studies were conducted with deprotected monomers and polymers.
HPLC was used to quantify drug release by detecting free drug as a function of time normalized to amount of drug present during initial incubation. This in turn was standardized to the total available drug in the system as quantified by dissolving a known amount of polymer in 10% aq. H2SO4 for 48 h at 25° C. Using a Cipro standard curve, the total amount of drug in the polymers was validated against compositional values obtained from ^19F NMR. […]
Absorbance Detector, and Agilent ChemStation software for LC system (Palo Alto, Calif.). […]
Both non-serum (mobile phase:deionized water) and serum standards were subsequently treated with 50% acetonitrile (v/v) to promote protein precipitation. […] Non-serum standards were analysed without the need for centrifugation. […]
The drug release from polymer conjugates was carried out in serum at 37° C. at a polymer concentration of 6 mg/mL. […] Quantification of total Cipro in the polymer conjugates was measured by taking 6 mg/mL of polymer and dissolving it in 10% aq. […] The HPLC with a gradient elution profile was used to quantify amount of drug released using the same instrument parameters set forth for drug standards. […]
Data set [2] has as its target butyrylcholinesterase (BChE) (Homo sapiens, UniProt P06276). As to conditions: buffer with BChE, relative to buffer alone.
Method: The drug release studies were conducted at 37° C. and free drug detection was quantified using an elution gradient profile at 277 nm.
Recombinant human butyrylcholinesterase (BChE) was obtained from R&D systems.
In a further data set the target is T1, Human liver cathepsin B (Homo sapiens, UniProt P07858).
T1 construct: purchased Enzo Life Sciences; host or cells: human liver
Nature of the data set: Cathepsin B cleavage assay. Type of data set: biochemical. Conditions: for cathepsin B cleavage of FKFL linker and peptide release: RP-HPLC and MS. Here is the method: Human liver cathepsin B (Enzo Life Sciences) was activated for 15 minutes in a solution of 0.158 mg/mL cathepsin B, 20 mM DTT, and 10 mM EDTA at 37° C. Peptide or polymer was then solubilized in reaction buffer (10 mM phosphate, 1 mM EDTA, pH 6.6, 37° C.) and added to the enzyme solution for a final concentration of 1.28 μg/mL cathepsin B and […] peptide/polymer. […] Cleavage of the polymers was also visualized by SDS-PAGE on 8-16% Tris-Glycine Gels (Bio-Rad). For protein gel analyses, reactions were conducted at 3× concentration and 160 μg of polymer was loaded per well.

Data set [3] can be described thus: Serum stability of peptide macromonomers and polymers. Type of data set: in vitro ADME, human. As to conditions: 37° C., 0 to 12 hours, MALDI-TOF MS.
Method: The stability of the peptide (FKFL) linker in the presence of serum proteases was evaluated by incubating the peptide monomers and polymers in human serum and analyzing the degradation products over time. Peptide (40 mM, DMSO) or polymer (4 mM, PBS) was added to human serum to a final peptide/polymer concentration of 400 μM and incubated at 37° C. At various time points, 40 μL aliquots of the mixture were withdraw and 40 μL of acetonitrile was added to precipitate serum proteins and halt protease degradation. Precipitated solutions were centrifuged at 13,000 rpm for 10 min and supernatants were analyzed by MALDI-TOF MS using a Bruker Autoflex II.
In the next data set the test system is caspase 3/7. As to conditions: 10 μM, 72 hours. As for the experimental part: Caspase 3/7 activity was measured using a SensoLyte Homogenous AMC Caspase-3/7 Assay Kit (AnaSpec). SKOV3 cells were plated in a black 96-well plate with a clear bottom at a density of 7,000 per well and then treated with polymer (0-10 μM) for 72 hours. Assay reagents were mixed with cell culture medium as per the manufacturer's instructions, incubated for 24 hours, and fluorescence (ex/em=380 nm/500 nm) was measured using a plate reader. Percent caspase 3/7 activity was calculated relative to untreated cell cultures.

In data set [4] the test system is SKOV3 human ovarian cancer cells. As to conditions: 10 μM, 72 hours. As for the experimental part: Induction of apoptosis was measured with a FITC Annexin V/Dead Cell Apoptosis Kit (Invitrogen) as per the manufacturer's instructions. SKOV3s cells were plated in 6-well plates at a density of 120,000 cells per well and treated with 10 μM polymer solutions for 72 hours. After 72 hours, cells were trypsinized, rinsed in PBS, centrifuged, stained with FITC-annexin V, and analyzed on a BD LSRII flow cytometer.

Square brackets hold non-standard residues; d marks the D form. Peptide text beside a SMILES is read from it. * marks the point of attachment. Methacryloyl = C=C(C)C(=O)*; Ahx = NCCCCCC(=O)O

Sequence of butyrylcholinesterase (BChE) (P06276 29-602): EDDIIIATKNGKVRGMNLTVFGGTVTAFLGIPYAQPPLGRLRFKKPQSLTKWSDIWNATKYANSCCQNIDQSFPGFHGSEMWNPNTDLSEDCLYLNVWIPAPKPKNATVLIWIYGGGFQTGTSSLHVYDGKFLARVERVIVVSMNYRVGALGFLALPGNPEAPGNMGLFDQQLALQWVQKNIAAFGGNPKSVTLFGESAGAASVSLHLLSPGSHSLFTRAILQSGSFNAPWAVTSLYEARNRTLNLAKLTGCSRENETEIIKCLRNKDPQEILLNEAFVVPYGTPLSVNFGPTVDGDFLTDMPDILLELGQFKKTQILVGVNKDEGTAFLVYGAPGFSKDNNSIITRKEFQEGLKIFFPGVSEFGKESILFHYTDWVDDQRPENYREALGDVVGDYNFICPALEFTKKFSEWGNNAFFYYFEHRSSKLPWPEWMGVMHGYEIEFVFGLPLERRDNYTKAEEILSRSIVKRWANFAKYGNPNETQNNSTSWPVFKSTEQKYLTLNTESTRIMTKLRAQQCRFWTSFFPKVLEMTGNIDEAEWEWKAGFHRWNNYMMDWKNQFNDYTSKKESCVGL

In data set [1], `C=C(C)C(=O)OCCOC(=O)c1cn(C2CC2)c2cc(N3CCN(C(=O)OC(C)(C)C)CC3)c(F)cc2c1=O` [HBC, (hydroxyethyl)methacrylate-boc-ciprofloxacin] gave a drug release of roughly 50%. In addition, the “effect of added BChE on ester hydrolysis” value in data set [2] is reported as “increases hydrolysis”.

Regarding `C=C(C)C(=O)NCCCCCC(=O)N[C@@H](Cc1ccccc1)C(=O)N[C@@H](CCCCN)C(=O)N[C@@H](Cc1ccccc1)C(=O)N[C@@H](CC(C)C)C(=O)NCCCCCC(=O)N[C@@H](CC(C)C)C(=O)N[C@@H](CCCNC(=N)N)C(=O)N[C@@H](CCSC)C(=O)N[C@@H](CCCNC(=N)N)C(=O)N[C@@H](CCC(=O)O)C(=O)N[C@H](C(=O)N[C@H](C(=O)N[C@@H](CC(=O)O)C(=O)N[C@@H](C)C(=O)N[C@@H](Cc1ccc(O)cc1)C(=O)N[C@@H](CCC(=O)O)C(=O)N[C@@H](CCCNC(=N)N)C(=O)N[C@@H](CCC(N)=O)C(=O)N[C@@H](Cc1ccccc1)C(=O)NCC(=O)N[C@@H](CCC(=O)O)C(=O)N1CCC[C@H]1C(=O)N[C@@H](CC(N)=O)C(=O)N[C@H](C(=O)N[C@@H](Cc1c[nH]c2ccccc12)C(=O)N[C@@H](C)C(N)=O)[C@@H](C)CC)[C@@H](C)CC)[C@@H](C)CC` [MaAhxFKFLAhxScrBIM] ({Methacryloyl-Ahx}-FKFL[Ahx]LRMREIIDAYERQFGEPNIWA-NH2), the “cleavage at the FKFL linker” value at Human liver cathepsin B (by 20 minutes) is 100%. Further, the “stability of the FKFL linker in human serum” value in data set [3] was “intact peptide monomer (3437 Da) was detectable after 12 hours”.

On to “ciprofloxacin-(phenol)methacrylate [CPM]”, for which, in data set [2], the “effect of added BChE on ester hydrolysis” value is reported as “increases hydrolysis”.

“poly[(DEAEMA)-co-(BMA)]-b-[(PEGMA300)-c-(MaAhxFKFLAhxBIM)] [PolBIM]”: the “cathepsin B cleavage of FKFL linker and peptide release” value on Human liver cathepsin B is reported as “release the desired (2980 Da) peptide product”. The “caspase 3/7 activity relative to untreated cells” value in the data set on caspase 3/7 is “more than 8 fold”. Further, the “cells staining positive for annexin V” value in data set [4] is 87%.

As to “poly[(DEAEMA)-co-(BMA)]-b-[(PEGMA300)-c-(MaAhxFKFLAhxScrBIM)] [PolScrBIM]”, the “cathepsin B cleavage of FKFL linker and peptide release” value on Human liver cathepsin B is on record as “release the desired (2980 Da) peptide product”. For the same compound, the “caspase 3/7 activity relative to untreated cells” value with caspase 3/7 is reported as “no change”. For the same compound, the “cells staining positive for annexin V” value in data set [4] amounted to 15%.
